pIC50, pKi: −log10 of the molar value.
How the values were obtained:
ACK1 = molecular target: T1, ACK1 (Homo sapiens, UniProt Q07912); test: ACK1 Enzymatic Assay; assay type: biochemical; settings: 5 μM ATP, ELISA phosphotyrosine readout
T1 construct: a fusion of an N-terminal (His)6 Tag with amino acids 117 to 489 of ACK1; (His)6 (N); made in house; host or cells: baculovirus infected Hi-5 insect cells
Procedure: IC50 values of inventive compounds may be assessed as follows. […] The substrate of for the reaction is ACK1 itself (autophosphorylation) and poly-Glutamic acid-Tyrosine (PGT (4:1), Sigma catalog #PO275). The PGT is coated to Nunc 96 well plates at 80 μg/mL overnight at 4° C. […] Test compounds are added in 10 μL DMSO, and the reaction is started by addition of 10 μL kinase in assay buffer. The reaction proceeds 2 h at room temperature. Next the plates are washed four times, and the level of tyrosine phosphorylation in a given well is quantified by standard ELISA assay utilizing a phosphotyrosine antibody (PY20, Pierce).

C8 cells = test: ACK1 Cell Based Assay, test (C8) cell line; settings: 0.125% FCS, 20 to 24 h, cell viability (Cytotox One kit)
Procedure: The ACK1 cell based assay is designed to find inhibitors of ACK1 kinase activity which would be prime candidates for the development of anticancer drugs. […] This dependency was confirmed utilizing ACK1 specific siRNAs.
For this assay, test (C8) and control (HeLa) cell lines are seeded in 96 well tissue culture plates (BD Falcon) at a density of 2 to 4×10^4 in DMEM/F12 (C8) or DMEM (HeLa) with 0.125% FCS in the presence of ACK1 inhibitors (final DMSO concentration is 0.5%, all tissue culture media are from Cellgro). After 20 to 24 h incubation at 37° C. and 5% CO2, cell viability is determined using the Cytotox One kit (Promega) according to the manufacturer's instructions.

LCK = molecular target: T2, LCK (Homo sapiens, UniProt P06239); test: LCK-Homogeneous Time Resolved Fluorescent (HTRF) Kinase Assay; assay type: biochemical; settings: LCK KD GST (225-509)
T2 construct: 15 μL of LCK KD GST (225-509) for a final volume of 40 μL; GST
Procedure: The LCK HTRF assay begins with LCK in the presence of ATP phosphorylating the biotinylated peptide Gastrin. The reaction incubates for 90 min. To quench the assay detection reagents are added which both stop the reaction by diluting out the enzyme and chelating the metals due to the presence of EDTA. Once the detection reagents are added the assay incubates for 30 min to allow for equilibration of the detection reagents.
The final concentration of gastrin is 1.2 μM. The final concentration of ATP is 0.5 μM (Km app=[…]) and the final concentration of LCK is […]. Buffer conditions are as follows: 50 mM HEPES pH 7.5, 50 mM NaCl, 20 mM MgCl, 5 mM MnCl, 2 mM DTT, 0.05% BSA.
The assay is quenched and stopped with 160 μL of detection reagent. Detection reagents are as follows: Buffer made of 50 mM Tris, pH 7.5, 100 mM NaCl, 3 mM EDTA, 0.05% BSA, 0.1% Tween20. Added to this buffer prior to reading is Steptavidin allophycocyanin (SA-APC) at a final conc in the assay of 0.0004 mg/mL, and europilated anti-phosphotyrosine Ab (Eu-anti-PY) at a final conc of 0.025 nM.
The assay plate is read in either a Discovery or a RubyStar. The eu-anti-PY is excited at 320 nm and emits at 615 nm to excite the SA-APC which in turn emits at 655 nm. The ratio of SA-APC at 655 nm (excited due to close proximity to the Eu-anti-PY because of phosphorylation of the peptide) to free Eu-anti-PY at 615 nm will give substrate phosphorylation.

T1 sequence (Q07912 117-489): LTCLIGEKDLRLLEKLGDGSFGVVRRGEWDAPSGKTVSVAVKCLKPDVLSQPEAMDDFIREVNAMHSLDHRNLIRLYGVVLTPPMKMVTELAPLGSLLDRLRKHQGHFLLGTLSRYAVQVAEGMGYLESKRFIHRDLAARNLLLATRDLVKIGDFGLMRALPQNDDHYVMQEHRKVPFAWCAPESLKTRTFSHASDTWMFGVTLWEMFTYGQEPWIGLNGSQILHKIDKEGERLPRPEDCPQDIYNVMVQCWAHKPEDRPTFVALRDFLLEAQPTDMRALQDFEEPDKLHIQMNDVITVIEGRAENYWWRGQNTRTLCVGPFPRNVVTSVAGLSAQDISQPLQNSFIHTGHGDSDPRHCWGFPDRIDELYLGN
T2 sequence (P06239 225-509): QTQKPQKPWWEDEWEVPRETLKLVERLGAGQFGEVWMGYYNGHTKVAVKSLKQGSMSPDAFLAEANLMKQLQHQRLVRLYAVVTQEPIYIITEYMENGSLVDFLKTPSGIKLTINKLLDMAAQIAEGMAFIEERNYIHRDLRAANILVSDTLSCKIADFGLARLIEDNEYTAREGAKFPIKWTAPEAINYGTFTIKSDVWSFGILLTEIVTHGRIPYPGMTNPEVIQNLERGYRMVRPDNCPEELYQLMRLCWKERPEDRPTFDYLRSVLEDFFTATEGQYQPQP

SMILES | pKi (ACK1) | pKi (LCK) | pIC50 (C8 cells)
O=C1CCCN1CCOc1ccc(-c2[nH]c3ncnc(NCC4CCCO4)c3c2-c2ccccc2)cc1 (stereo not drawn) [Example 23, 1-[2-(4-{5-Phenyl-4-[(tetrahydrofuran-2-ylmethyl)-amino]-7H-pyrrolo[2,3-d]pyrimidin-6-yl}-phenoxy)-ethyl]-pyrrolidin-2-one] | > 8.00 | > 8.00 | 7.00 to 8.00
c1ccc(-c2[nH]c3ncnc(NCC4CCCS4)c3c2-c2ccccc2)cc1 (stereo not drawn) [Example 3, (5,6-Diphenyl-7H-pyrrolo[2,3-d]pyrimidin-4-yl)-(tetrahydrothiophen-2-ylmethyl)-amine] | 7.00 to 8.00 | > 8.00 | < 7.00
NS(=O)(=O)c1ccc(-c2[nH]c3ncnc(NC[C@@H]4CCCO4)c3c2-c2ccccc2)cc1 [Example 15, 4-{5-Phenyl-4-[(tetrahydrofuran-2-ylmethyl)-amino]-7H-pyrrolo[2,3-d]pyrimidin-6-yl}-benzenesulfonamide] | > 8.00 | 7.00 to 8.00 | < 7.00
CCN(CC)S(=O)(=O)c1ccc(-c2[nH]c3ncnc(NCC4CCCO4)c3c2-c2ccccc2)cc1 (stereo not drawn) [Example 7, N,N-Diethyl-4-{5-phenyl-4-[(tetrahydrofuran-2-ylmethyl)-amino]-7H-pyrrolo[2,3-d]pyrimidin-6-yl}-benzenesulfonamide] | > 8.00 | > 8.00 | < 7.00
COCCNS(=O)(=O)c1ccc(-c2[nH]c3ncnc(NCC4CCCO4)c3c2-c2ccccc2)cc1 (stereo not drawn) [Example 9, N-(2-Methoxyethyl)-4-{5-phenyl-4-[(tetrahydrofuran-2-ylmethyl)-amino]-7H-pyrrolo[2,3-d]pyrimidin-6-yl}-benzenesulfonamide] | > 8.00 | > 8.00 | 7.00 to 8.00
C=CCNS(=O)(=O)c1ccc(-c2[nH]c3ncnc(NCC4CCCO4)c3c2-c2ccccc2)cc1 (stereo not drawn) [Example 12, N-Allyl-4-{5-phenyl-4-[(tetrahydro-furan-2-ylmethyl)-amino]-7H-pyrrolo[2,3-d]pyrimidin-6-yl}-benzenesulfonamide] | > 8.00 | > 8.00 | < 7.00
O=S(=O)(NCCO)c1ccc(-c2[nH]c3ncnc(NC[C@@H]4CCCO4)c3c2-c2ccccc2)cc1 [Example 18, N-(2-Hydroxy-ethyl)-4-{5-phenyl-4-[(tetrahydro-furan-2-ylmethyl)-amino]-7H-pyrrolo[2,3-d]pyrimidin-6-yl}-benzenesulfonamide] | > 8.00 | > 8.00 | < 7.00
c1ccc(-c2[nH]c3ncnc(NCC4CCCO4)c3c2-c2ccccc2)cc1 (stereo not drawn) [Example 2, (5,6-Diphenyl-7H-pyrrolo[2,3-d]pyrimidin-4-yl)-(tetrahydrofuran-2-ylmethyl)-amine] | > 8.00 | > 8.00 | < 7.00
O=S(=O)(NCC(O)CO)c1ccc(-c2[nH]c3ncnc(NC[C@@H]4CCCO4)c3c2-c2ccccc2)cc1 (stereo partly drawn) [Example 16, N-(2,3-Dihydroxy-propyl)-4-{5-phenyl-4-[(tetrahydrofuran-2-ylmethyl)-amino]-7H-pyrrolo[2,3-d]pyrimidin-6-yl}-benzenesulfonamide] | > 8.00 | > 8.00 | < 7.00
c1ccc(-c2c(-c3ccc(OCCN4CCOCC4)cc3)[nH]c3ncnc(NCC4CCCO4)c23)cc1 (stereo not drawn) [Example 21, {6-[4-(2-Morpholin-4-yl-ethoxy)-phenyl]-5-phenyl-7H-pyrrolo[2,3-d]pyrimidin-4-yl}-(tetrahydro-furan-2-ylmethyl)-amine] | > 8.00 | > 8.00 | 7.00 to 8.00
COCCN(CCOC)S(=O)(=O)c1ccc(-c2[nH]c3ncnc(NCC4CCCO4)c3c2-c2ccccc2)cc1 (stereo not drawn) [Example 8, N,N-Bis-(2-methoxyethyl)-4-{5-phenyl-4-[(tetrahydrofuran-2-ylmethyl)-amino]-7H-pyrrolo[2,3-d]pyrimidin-6-yl}-benzenesulfonamide] | > 8.00 | > 8.00 | < 7.00
c1ccc(-c2[nH]c3ncnc(NCC4CCCCO4)c3c2-c2ccccc2)cc1 (stereo not drawn) [Example 4, (5,6-Diphenyl-7H-pyrrolo[2,3-d]pyrimidin-4-yl)-(tetrahydropyran-2-ylmethyl) amine] | 7.00 to 8.00 | > 8.00 | < 7.00

Second part, led by results:

pKi (ACK1) | pKi (LCK) | SMILES | pIC50 (C8 cells)
> 8.00 | > 8.00 | CNC(=O)c1ccc(-c2[nH]c3ncnc(NC[C@@H]4CCCO4)c3c2-c2ccccc2)cc1 [Example 26, N-Methyl-4-{5-phenyl-4-[(tetrahydrofuran-2-ylmethyl)-amino]-7H-pyrrolo[2,3-d]pyrimidin-6-yl}-benzamide] | 7.00 to 8.00
< 7.00 | 7.00 to 8.00 | CN(C)CCOc1ccc(-c2[nH]c3ncnc(NC[C@H]4CCC[C@H]4N)c3c2-c2ccccc2)cc1 (relative stereo) [Example 38, cis-(2-Amino-cyclopentylmethyl)-{6-[4-(2-dimethylamino-ethoxy)-phenyl]-5-phenyl-7H-pyrrolo[2,3-d]pyrimidin-4-yl}-amine] | < 7.00
7.00 to 8.00 | 7.00 to 8.00 | CN1CCCC1CCOc1ccc(-c2[nH]c3ncnc(NCC4CCCO4)c3c2-c2ccccc2)cc1 (stereo not drawn) [Example 24, (6-{4-[2-(1-Methyl-pyrrolidin-2-yl)-ethoxy]-phenyl}-5-phenyl-7H-pyrrolo[2,3-d]pyrimidin-4-yl)-(tetrahydrofuran-2-ylmethyl)-amine] | < 7.00
> 8.00 | > 8.00 | CN(C)CCNC(=O)c1ccc(-c2[nH]c3ncnc(NCC4CCCO4)c3c2-c2ccccc2)cc1 (stereo not drawn) [Example 32, N-(2-Dimethylamino-ethyl)-4-{5-phenyl-4-[(tetrahydrofuran-2-ylmethyl)-amino]-7H-pyrrolo[2,3-d]pyrimidin-6-yl}-benzamide] | 7.00 to 8.00
7.00 to 8.00 | > 8.00 | CN(C)CCOc1ccc(-c2[nH]c3ncnc(NCC4CCC4)c3c2-c2ccccc2)cc1 [Example 34, Cyclobutylmethyl-{6-[4-(2-dimethylamino-ethoxy)-phenyl]-5-phenyl-7H-pyrrolo[2,3-d]pyrimidin-4-yl}-amine] | < 7.00
> 8.00 | > 8.00 | O=C(NCCN1CCOCC1)c1ccc(-c2[nH]c3ncnc(NCC4CCCO4)c3c2-c2ccccc2)cc1 (stereo not drawn) [Example 31, N-(2-Morpholin-4-yl-ethyl)-4-{5-phenyl-4-[(tetrahydrofuran-2-ylmethyl)-amino]-7H-pyrrolo[2,3-d]pyrimidin-6-yl}-benzamide] | < 7.00
 | > 8.00 | CN(C)CCOc1ccc(-c2[nH]c3ncnc(NC[C@H]4CCC[C@H]4O)c3c2-c2ccccc2)cc1 (relative stereo) [Example 37, cis-2-({6-[4-(2-Dimethylamino-ethoxy)-phenyl]-5-phenyl-7H-pyrrolo[2,3-d]pyrimidin-4-ylamino}-methyl)-cyclopentanol] | < 7.00
7.00 to 8.00 |  | CN(C)CCOc1ccc(-c2[nH]c3ncnc(NC[C@@H]4CC[C@H]4O)c3c2-c2ccccc2)cc1 (mixture of isomers) [Example 36, trans/cis-2-({6-[4-(2-Dimethylamino-ethoxy)-phenyl]-5-phenyl-7H-pyrrolo[2,3-d]pyrimidin-4-ylamino}-methyl)-cyclobutanol] | < 7.00
 | > 8.00 | CN(C)CCOc1ccc(-c2[nH]c3ncnc(NCC4SCCS4)c3c2-c2ccccc2)cc1 [Example 33, {6-[4-(2-Dimethylaminoethoxy)-phenyl]-5-phenyl-7H-pyrrolo[2,3-d]pyrimidin-4-yl}-[1,3]dithiolan-2-ylmethyl-amine] | > 8.00

Reference: US7358250B2, “Pyrrolo[2,3-d]pyrimidines that modulate ACK1 activity” (Amgen Inc., priority 2004, dated 2008)
